{"source": "patent US11920185B2", "about": "“Method of inactivating microbes by citraconic anhydride” (Roche Molecular Systems, Inc., priority 2015, dated 2024)", "tested_on": "lambda bacteriophage GT11", "experiment": "Titering (plaque assay) of citraconic anhydride-treated lambda bacteriophage on E. coli Y1088", "assay_type": "cell-based", "conditions": "for Titer, Tricine, After 1 month / Titer, Tricine, Day 1: stored in 10 mM Tricine pH 8.3; for Titer, Tris, After 1 month / Titer, Tris, Day 1: stored in 10 mM Tris pH8.3; for Titer pfu/ml (at 1 month): stored one month at 4° C.", "experimental": "In order to analyze lambda bacteriophage GT11 inactivation using citraconic anhydride (also referred to as “Cit” or “cit”), a titration was performed.\n10 μl of working solution of citraconic anhydride in DMF was added to 1 ml lambda bacteriophage in SM buffer, which is 0.1 M NaCl, 10 mM MgSO^4, 50 mM Tris pH 7.5, 0.01% gelatin (Sambrook and Russell, supra, page A2.8) where the phage was provided at 1×10^7 pfu/ml). The reaction was performed at room temperature for 1 hour and then stored at 4° C. for 7 days to one month. The phage solutions were titered to determine the effect of the citraconic anhydride modification on the phage.\nTitering of bacteriophage was performed as follows: The host bacterium, E. coli Y1088, was inoculated into 15 mls luria broth supplemented with 10 mM MgSO4 and 0.2% Maltose (w/v) using a 0.1% inoculum and incubated at 37° C. to an OD<=1. The cells were concentrated by centrifugation (10 minutes at 500×g) and the cell pellet resuspended in ½ volume of sterile 10 mM MgSO4. The E. coli cells were diluted to 0.5 OD600 with 10 mM MgSO4. The bacteriophage was serially diluted in SM Buffer as follows. Pipet 10 μL phage into the tube labeled 10^−2. Resuspend by vortexing. Using a new tip, pipet 10 μL of the 10^−2 dilution into the tube labeled 10^−4. Resuspend by vortexing. Repeat the 100-fold serial dilutions to the 10^−8 tube. From the 10^−8 tube, perform 10-fold dilutions to the 10^−9 and 10^−10 tubes. Add 100 μL of phage from the 10^−8 s to the 10^−9 tube, vortex, and add 100 μL from the 10^−9 tube to the 10^−10 tube. Vortex the 10^−10 tube. Add 300 μL E. coli to each of 5 sterile 17×100 mm Falcon polypropylene round bottom tubes (#352057) for each sample being titered. Add 100 μL of the diluted […] to the tube (dilutions 10^−4, 10^−6, 10^−8, 10^−9 and 10^−10). Let sit 10 minutes at room temperature. Incubate 10 minutes at 37° C. Meanwhile, label the NZCYM plates with the phage sample and the dilution. To the first tube still in the 37° C. heat block, add 3 mL top agar (from the bottle of top agar in the 50° C. bath), vortex the tube, and quickly pour onto the NZCYM plate. Swirl the plate quickly so the top agar covers the entire plate. Allow the top agar to solidify on the bench. Repeat with each tube. Incubate the plates at 37° C. overnight in an inverted position. The next day, count the plaques and calculate the titer by using the dilution which provides the most countable number of plaques.\nThis experiment tested the stability of citraconic anhydride (Cit)-treated lambda bacteriophage. Phage was inactivated using different Cit concentrations and stored for one month at 4° C.\nBacteriophage targets treated with different concentrations of Cit were stored in different buffers and then evaluated for their inactivation status. Targets were stored in either 10 mM Tris pH8.3 or 10 mM Tricine pH 8.3.", "note": "Read-outs that look alike come from different tables or passages of the source."}
{"compound": "CC1=CC(=O)OC1=O", "note": "[citraconic anhydride]", "values": [{"measurement": "Day 1 - Titer", "value": "6.7 × 10^6 pfu/ml"}, {"measurement": "Day 8 - Titer", "setting": "1.1 μM final concentration, stored at 4° C.", "value": "3.9 × 10^7 pfu/ml"}, {"measurement": "Day 1 - Titer", "setting": "11 μM final concentration", "value": "9.0 × 10^6 pfu/ml"}, {"measurement": "Day 8 - Titer", "setting": "11 μM final concentration, stored at 4° C.", "value": "2.9 × 10^7 pfu/ml"}, {"measurement": "Day 1 - Titer", "setting": "0.11 mM final concentration", "value": "5.5 × 10^6 pfu/ml"}, {"measurement": "Day 8 - Titer", "setting": "0.11 mM final concentration, stored at 4° C.", "value": "3.6 × 10^7 pfu/ml"}, {"measurement": "Day 1 - Titer", "setting": "1.1 mM final concentration", "value": "1.8 × 10^6 pfu/ml"}, {"measurement": "Day 8 - Titer", "setting": "1.1 mM final concentration, stored at 4° C.", "value": "2.0 × 10^7 pfu/ml"}, {"measurement": "Titer, Tricine, After 1 month", "setting": "5.5 mM Cit", "value": "3 × 10^3 pfu/ml"}, {"measurement": "Titer, Tricine, Day 1", "setting": "5.5 mM Cit", "value": "1 × 10^3 pfu/ml"}, {"measurement": "Titer, Tris, After 1 month", "setting": "5.5 mM Cit", "value": 0, "unit": "pfu/ml"}, {"measurement": "Titer, Tris, Day 1", "setting": "5.5 mM Cit", "value": "1.5 × 10^3 pfu/ml"}, {"measurement": "Titer pfu/ml (Day 1)", "setting": "5.5 mM final Cit concentration", "value": "1.5 × 10^6 pfu/ml"}, {"measurement": "Titer pfu/ml (at 1 month)", "setting": "5.5 mM final Cit concentration", "value": "1.5 × 10^6 pfu/ml"}, {"measurement": "Titer, Tricine, After 1 month", "setting": "11 mM Cit", "value": 0, "unit": "pfu/ml"}, {"measurement": "Titer, Tricine, Day 1", "setting": "11 mM Cit", "value": 0, "unit": "pfu/ml"}, {"measurement": "Titer, Tris, After 1 month", "setting": "11 mM Cit", "value": 0, "unit": "pfu/ml"}, {"measurement": "Titer, Tris, Day 1", "setting": "11 mM Cit", "value": 0, "unit": "pfu/ml"}, {"measurement": "Titer pfu/ml (Day 1)", "setting": "11 mM final Cit concentration", "value": 0, "unit": "pfu/ml"}, {"measurement": "Titer pfu/ml (at 1 month)", "setting": "11 mM final Cit concentration", "value": 0, "unit": "pfu/ml"}, {"measurement": "Day 1 - Titer", "setting": "11 mM final concentration in reaction with phage, 1 h room temperature, phage 1×10^7 pfu/ml in SM buffer", "value": 0, "unit": "pfu/ml"}, {"measurement": "Day 8 - Titer", "setting": "11 mM final concentration, stored at 4° C.", "value": 0, "unit": "pfu/ml"}, {"measurement": "Phage inactivation", "setting": "11 mM, persisted after 7 days", "value": "complete inactivation"}, {"measurement": "Titer, Tricine, After 1 month", "setting": "22 mM Cit", "value": 0, "unit": "pfu/ml"}, {"measurement": "Titer, Tricine, Day 1", "setting": "22 mM Cit", "value": 0, "unit": "pfu/ml"}, {"measurement": "Titer, Tris, After 1 month", "setting": "22 mM Cit", "value": 0, "unit": "pfu/ml"}, {"measurement": "Titer, Tris, Day 1", "setting": "22 mM Cit", "value": 0, "unit": "pfu/ml"}, {"measurement": "Titer pfu/ml (Day 1)", "setting": "22 mM final Cit concentration", "value": 0, "unit": "pfu/ml"}, {"measurement": "Titer pfu/ml (at 1 month)", "setting": "22 mM final Cit concentration", "value": 0, "unit": "pfu/ml"}, {"measurement": "Persistence of phage inactivation after storage", "setting": "Cit-treatment at >=11 mM, storage in 10 mM Tris pH8.3 or 10 mM Tricine pH 8.3", "value": "provides inactivation for 1 month"}, {"measurement": "Persistence of phage inactivation", "setting": "greater than or equal to 11 mM, stored at 4° C.", "value": "remain inactivated for 1 month"}]}
